Experimental data published in ChEMBL document CHEMBL1201862, “PubChem BioAssay data set” (2004).
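Tested at 5 concentrations; 48 h exposure; 96-well plates; endpoints linearly interpolated, else capped at highest concentration. Here, GI50 denotes the concentration required for 50% inhibition of growth.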 The source made the active and inactive calls. Cut-off read from the data, not from the text of the source: active = GI50 up to about 1.1 µM and inactive = higher.

How the values were obtained:
Test in all cases: growth of human tumour cells (NCI), 48 h
SF-295 = system: SF-295
SR = system: SR
SNB-19 = system: SNB-19
UACC-62 = system: UACC-62
IGROV-1 = system: IGROV-1
CCRF-CEM = system: CCRF-CEM
A549 = system: A549
SK-MEL-5 = system: SK-MEL-5
NCI-H522 = system: NCI-H522
CAKI-1 = system: CAKI-1
HOP-62 = system: HOP-62
UO-31 = system: UO-31
COLO 205 = system: COLO 205
SK-MEL-28 = system: SK-MEL-28
M14 = system: M14
M19-MEL = system: M19-MEL
NCI/ADR-RES = system: NCI/ADR-RES
MDA-N = system: MDA-N
MDA-MB-231 = system: MDA-MB-231
PC-3 = system: PC-3

Measured: GI50

C1CN2N3CCCC23C1 (centres undefined)
inactive: SF-295 > 100 µM | SR > 100 µM | SNB-19 > 100 µM | UACC-62 > 100 µM | IGROV-1 > 100 µM | CCRF-CEM > 100 µM | A549 > 100 µM | SK-MEL-5 > 100 µM | NCI-H522 > 100 µM | CAKI-1 > 100 µM | HOP-62 > 100 µM | UO-31 > 100 µM | COLO 205 > 100 µM | SK-MEL-28 > 100 µM | M14 > 100 µM | M19-MEL > 100 µM

O=C(N[C@@H]1C=CCC[C@@H]1c1ccccc1)OCc1ccccc1
inactive: SF-295 20.4 µM | SR 15.1 µM | SNB-19 32.7 µM | UACC-62 14.1 µM | IGROV-1 24.2 µM | CCRF-CEM 16.4 µM | A549 25.6 µM | SK-MEL-5 17.9 µM | NCI-H522 14.8 µM | CAKI-1 12.2 µM | HOP-62 18.5 µM | UO-31 18.1 µM | COLO 205 18.5 µM | SK-MEL-28 21.9 µM | M14 17.9 µM | M19-MEL 21.5 µM

CC(C)Cc1ccc(C(C)/C=C2\CCC(CN(C)C)C2=O)cc1 (centres undefined)
inactive: SF-295 14.7 µM | SR 3.2 µM | SNB-19 12.4 µM | UACC-62 17.5 µM | IGROV-1 9.73 µM | CCRF-CEM 3.92 µM | A549 27.7 µM | NCI/ADR-RES 5.89 µM | SK-MEL-5 11.7 µM | NCI-H522 7.31 µM | MDA-N 10.2 µM | MDA-MB-231 2.28 µM | PC-3 10.5 µM | CAKI-1 17.5 µM | HOP-62 9.23 µM | UO-31 10.9 µM | COLO 205 11.6 µM | SK-MEL-28 15.8 µM | M14 12.9 µM | M19-MEL 17.6 µM

CCOC(=O)C(=O)C=P(c1ccccc1)(c1ccccc1)c1ccccc1
inactive: SF-295 > 100 µM | SR > 100 µM | SNB-19 > 100 µM | UACC-62 > 100 µM | IGROV-1 > 100 µM | CCRF-CEM > 100 µM | A549 > 100 µM | SK-MEL-5 > 100 µM | NCI-H522 > 100 µM | CAKI-1 > 100 µM | HOP-62 > 100 µM | UO-31 > 100 µM | COLO 205 > 100 µM | SK-MEL-28 > 100 µM | M14 > 100 µM | M19-MEL > 100 µM

C[C@@]1(Cc2ccccc2)C(=O)N2[C@@H](CO)C(c3ccccc3)O[C@]2(C)c2ccccc21 (some centres undefined)
inactive: SF-295 72.4 µM | SR > 100 µM | SNB-19 > 100 µM | UACC-62 > 100 µM | IGROV-1 > 100 µM | CCRF-CEM 81.1 µM | A549 > 100 µM | SK-MEL-5 > 100 µM | NCI-H522 81.1 µM | CAKI-1 26.2 µM | HOP-62 > 100 µM | UO-31 > 100 µM | COLO 205 > 100 µM | SK-MEL-28 > 100 µM | M14 > 100 µM | M19-MEL > 100 µM
